# Test results reported in ChEMBL document CHEMBL4425102, “Structure-Based Design of Tetrahydroisoquinoline-7-carboxamides as Selective Discoidin Domain Receptor 1 (DDR1) Inhibitors” (J Med Chem, 2016).
# pIC50, pKd: −log10 of the molar value. Activity calls are given as the source filed them. No cut-off for these calls is given here.
# Tests used:
# [1] = target: Tyrosine-protein kinase ABL1 (Homo sapiens, UniProt P00519); assay: Inhibition of human full length recombinant His-tagged ABL1 expressed in baculovirus infected Sf9 insect cells using tyrosine 2 peptide as substrate preincubated for 1 hr measured after 2 hrs in presence of ATP by FRET-based Z'-Lyte assay
# [2] = target: Epithelial discoidin domain-containing receptor 1 (Homo sapiens, UniProt Q08345); assay: biochemical
# [3] = Cmax in Sprague-Dawley rat at 20 mg/kg, po measured after 0.03 to 24 hrs by HPLC/MS analysis; type: ADME, organism-based; parameters: dose 20 mg/kg, route oral; details: in vivo
# [4] = Tmax in ICR mouse at 4 mg/kg, po by HPLC/MS analysis; type: ADME, organism-based; details: in vivo
# [5] = AUC (0 to infinity) in Sprague-Dawley rat at 20 mg/kg, po measured after 0.03 to 24 hrs by HPLC/MS analysis; type: ADME, organism-based; parameters: dose 20 mg/kg, route oral, time infinity; details: in vivo
# [6] = Cmax in ICR mouse at 1 mg/kg, iv measured after 5 mins to 24 hrs by HPLC/MS analysis; type: ADME, organism-based; parameters: dose 1 mg/kg, route intravenous; details: in vivo
# [7] = system: Mus musculus; assay: Protection against bleomycin-induced lung fibrosis in C57BL/6 mouse assessed as increase in alveolar spaces administered via oral gavage bid 14 days post bleomycin treatment measured on day 28 by Massons trichrome staining; type: functional, organism-based
# [8] = AUC (0 to infinity) in ICR mouse at 4 mg/kg, po measured after 15 mins to 24 hrs by HPLC/MS analysis; type: ADME, organism-based; parameters: dose 4 mg/kg, route oral, time infinity; details: in vivo
# [9] = Tmax in Sprague-Dawley rat at 20 mg/kg, po by HPLC/MS analysis; type: ADME, organism-based; details: in vivo
# [10] = Oral bioavailability in ICR mouse at 4 mg/kg measured after 15 mins to 24 hrs by HPLC/MS analysis; type: ADME, organism-based; details: in vivo
# [11] = AUC (0 to infinity) in Sprague-Dawley rat at 4 mg/kg, iv measured after 0.03 to 24 hrs by HPLC/MS analysis; type: ADME, organism-based; parameters: dose 4 mg/kg, time infinity, route intravenous; details: in vivo
# [12] = AUC (0 to infinity) in ICR mouse at 1 mg/kg, iv measured after 5 mins to 24 hrs by HPLC/MS analysis; type: ADME, organism-based; parameters: dose 1 mg/kg, time infinity, route intravenous; details: in vivo
# [13] = system: Mus musculus; assay: Protection against bleomycin-induced lung fibrosis in C57BL/6 mouse assessed as decrease in hydroxyproline level in lung administered via oral gavage bid 14 days post bleomycin treatment measured on day 28 […]; type: functional, organism-based
# [14] = Cmax in ICR mouse at 4 mg/kg, po measured after 15 mins to 24 hrs by HPLC/MS analysis; type: ADME, organism-based; parameters: dose 4 mg/kg, route oral; details: in vivo
# [15] = system: Mus musculus; assay: Protection against bleomycin-induced lung fibrosis in C57BL/6 mouse assessed as decrease in alpha-smooth muscle actin level in lung at 10 to 50 mg/kg administered via oral gavage bid 14 days post bleomycin treatment measured on day 28 by immunoblot analysis; type: functional, organism-based
# [16] = Half life in Sprague-Dawley rat at 4 mg/kg, iv by HPLC/MS analysis; type: ADME, organism-based; details: in vivo
# [17] = Oral bioavailability in Sprague-Dawley rat at 20 mg/kg measured after 0.03 to 24 hrs by HPLC/MS analysis; type: ADME, organism-based; details: in vivo
# [18] = target: T1, Muscle, skeletal receptor tyrosine-protein kinase (Homo sapiens, UniProt O15146); assay: Binding affinity to wild type human partial length MUSK (553 to 869 residues) expressed in bacterial expression system preincubated for 1 hr measured after 30 mins by qPCR method
# T1 sequence (O15146 whole entry): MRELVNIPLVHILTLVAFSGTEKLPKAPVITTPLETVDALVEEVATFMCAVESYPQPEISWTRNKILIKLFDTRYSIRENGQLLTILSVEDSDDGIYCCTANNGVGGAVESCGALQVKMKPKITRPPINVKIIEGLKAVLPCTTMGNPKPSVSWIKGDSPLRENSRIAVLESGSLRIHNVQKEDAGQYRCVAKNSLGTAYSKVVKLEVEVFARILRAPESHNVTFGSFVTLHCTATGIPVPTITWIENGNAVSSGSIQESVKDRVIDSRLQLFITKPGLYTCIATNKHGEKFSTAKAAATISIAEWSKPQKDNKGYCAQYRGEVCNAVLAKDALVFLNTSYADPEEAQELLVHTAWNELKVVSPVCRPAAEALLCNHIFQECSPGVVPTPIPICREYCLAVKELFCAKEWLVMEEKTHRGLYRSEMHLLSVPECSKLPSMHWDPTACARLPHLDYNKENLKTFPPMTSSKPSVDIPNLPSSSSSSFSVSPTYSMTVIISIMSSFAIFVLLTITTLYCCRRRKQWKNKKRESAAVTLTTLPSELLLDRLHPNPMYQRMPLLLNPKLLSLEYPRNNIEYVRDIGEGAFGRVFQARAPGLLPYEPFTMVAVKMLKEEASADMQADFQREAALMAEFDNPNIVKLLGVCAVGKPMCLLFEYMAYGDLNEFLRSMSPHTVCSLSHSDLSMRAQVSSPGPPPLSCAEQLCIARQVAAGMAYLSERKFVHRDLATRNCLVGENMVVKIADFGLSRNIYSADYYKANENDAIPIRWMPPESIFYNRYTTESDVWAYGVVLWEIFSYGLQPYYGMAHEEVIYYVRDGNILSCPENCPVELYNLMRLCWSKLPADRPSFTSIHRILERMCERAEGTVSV
# [19] = system: Mus musculus; assay: Protection against bleomycin-induced lung fibrosis in C57BL/6 mouse assessed as decrease in fibronectin level in lung at 10 to 50 mg/kg administered via oral gavage bid 14 days post bleomycin treatment measured on day 28 by immunoblot analysis; type: functional, organism-based
# [20] = Cmax in Sprague-Dawley rat at 4 mg/kg, iv measured after 0.03 to 24 hrs by HPLC/MS analysis; type: ADME, organism-based; parameters: dose 4 mg/kg, route intravenous; details: in vivo
# [21] = target: T2, Ephrin type-A receptor 8 (Homo sapiens, UniProt P29322); assay: Binding affinity to wild type human partial length EPHA8 (608 to 920 residues) expressed in bacterial expression system preincubated for 1 hr measured after 30 mins by qPCR method
# T2 sequence (P29322 whole entry): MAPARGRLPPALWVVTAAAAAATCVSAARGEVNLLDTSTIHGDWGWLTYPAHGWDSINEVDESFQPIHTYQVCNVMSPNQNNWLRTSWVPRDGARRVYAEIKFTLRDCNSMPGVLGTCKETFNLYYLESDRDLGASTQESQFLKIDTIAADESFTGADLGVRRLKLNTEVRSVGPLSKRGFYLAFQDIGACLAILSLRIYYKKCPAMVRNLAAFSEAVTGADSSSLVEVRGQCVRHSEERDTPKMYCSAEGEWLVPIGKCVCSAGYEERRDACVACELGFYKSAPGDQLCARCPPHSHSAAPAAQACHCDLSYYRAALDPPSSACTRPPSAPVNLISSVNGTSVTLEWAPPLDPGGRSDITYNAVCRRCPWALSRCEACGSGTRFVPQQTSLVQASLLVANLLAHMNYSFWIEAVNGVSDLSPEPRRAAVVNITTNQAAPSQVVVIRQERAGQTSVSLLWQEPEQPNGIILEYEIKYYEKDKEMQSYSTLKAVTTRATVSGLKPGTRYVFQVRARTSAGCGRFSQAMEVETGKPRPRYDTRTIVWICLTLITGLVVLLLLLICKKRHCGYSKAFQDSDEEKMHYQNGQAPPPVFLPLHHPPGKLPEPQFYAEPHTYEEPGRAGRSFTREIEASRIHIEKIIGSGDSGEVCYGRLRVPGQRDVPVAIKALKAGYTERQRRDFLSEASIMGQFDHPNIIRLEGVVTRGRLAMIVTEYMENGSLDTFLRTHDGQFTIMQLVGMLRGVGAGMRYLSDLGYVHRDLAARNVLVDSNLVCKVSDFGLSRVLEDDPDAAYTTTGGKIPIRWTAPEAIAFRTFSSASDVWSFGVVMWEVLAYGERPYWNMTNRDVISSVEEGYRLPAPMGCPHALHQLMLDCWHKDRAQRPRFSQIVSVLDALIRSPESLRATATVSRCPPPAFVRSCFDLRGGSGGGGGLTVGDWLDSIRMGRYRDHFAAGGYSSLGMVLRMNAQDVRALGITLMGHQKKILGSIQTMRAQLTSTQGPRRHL
# Sequence of Epithelial discoidin domain-containing receptor 1 (Q08345 whole entry, the tested form may be a part): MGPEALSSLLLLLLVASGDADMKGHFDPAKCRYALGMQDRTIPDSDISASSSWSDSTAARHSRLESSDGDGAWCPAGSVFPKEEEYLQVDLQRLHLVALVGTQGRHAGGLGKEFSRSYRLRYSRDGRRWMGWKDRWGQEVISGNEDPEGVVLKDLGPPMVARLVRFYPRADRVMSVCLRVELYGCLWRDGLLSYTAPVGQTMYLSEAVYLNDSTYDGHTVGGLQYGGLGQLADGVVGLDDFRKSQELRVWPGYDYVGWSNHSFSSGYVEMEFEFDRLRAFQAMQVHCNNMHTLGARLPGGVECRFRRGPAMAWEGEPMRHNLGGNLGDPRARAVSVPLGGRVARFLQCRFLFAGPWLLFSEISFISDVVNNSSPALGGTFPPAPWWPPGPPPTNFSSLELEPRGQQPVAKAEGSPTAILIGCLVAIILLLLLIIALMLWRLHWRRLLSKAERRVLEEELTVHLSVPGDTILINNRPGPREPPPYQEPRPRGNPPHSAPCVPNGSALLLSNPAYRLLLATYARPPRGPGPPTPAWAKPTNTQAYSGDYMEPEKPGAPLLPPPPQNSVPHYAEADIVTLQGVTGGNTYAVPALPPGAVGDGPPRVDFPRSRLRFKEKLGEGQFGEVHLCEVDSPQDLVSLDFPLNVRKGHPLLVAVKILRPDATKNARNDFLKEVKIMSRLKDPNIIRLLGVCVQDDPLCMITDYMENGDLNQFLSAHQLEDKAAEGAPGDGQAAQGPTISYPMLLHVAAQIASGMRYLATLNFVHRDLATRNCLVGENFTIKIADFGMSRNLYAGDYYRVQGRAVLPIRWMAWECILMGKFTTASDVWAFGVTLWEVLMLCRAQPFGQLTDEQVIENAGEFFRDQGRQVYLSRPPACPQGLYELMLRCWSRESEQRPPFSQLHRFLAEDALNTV
# Sequence of Tyrosine-protein kinase ABL1 (P00519 whole entry, the tested form may be a part): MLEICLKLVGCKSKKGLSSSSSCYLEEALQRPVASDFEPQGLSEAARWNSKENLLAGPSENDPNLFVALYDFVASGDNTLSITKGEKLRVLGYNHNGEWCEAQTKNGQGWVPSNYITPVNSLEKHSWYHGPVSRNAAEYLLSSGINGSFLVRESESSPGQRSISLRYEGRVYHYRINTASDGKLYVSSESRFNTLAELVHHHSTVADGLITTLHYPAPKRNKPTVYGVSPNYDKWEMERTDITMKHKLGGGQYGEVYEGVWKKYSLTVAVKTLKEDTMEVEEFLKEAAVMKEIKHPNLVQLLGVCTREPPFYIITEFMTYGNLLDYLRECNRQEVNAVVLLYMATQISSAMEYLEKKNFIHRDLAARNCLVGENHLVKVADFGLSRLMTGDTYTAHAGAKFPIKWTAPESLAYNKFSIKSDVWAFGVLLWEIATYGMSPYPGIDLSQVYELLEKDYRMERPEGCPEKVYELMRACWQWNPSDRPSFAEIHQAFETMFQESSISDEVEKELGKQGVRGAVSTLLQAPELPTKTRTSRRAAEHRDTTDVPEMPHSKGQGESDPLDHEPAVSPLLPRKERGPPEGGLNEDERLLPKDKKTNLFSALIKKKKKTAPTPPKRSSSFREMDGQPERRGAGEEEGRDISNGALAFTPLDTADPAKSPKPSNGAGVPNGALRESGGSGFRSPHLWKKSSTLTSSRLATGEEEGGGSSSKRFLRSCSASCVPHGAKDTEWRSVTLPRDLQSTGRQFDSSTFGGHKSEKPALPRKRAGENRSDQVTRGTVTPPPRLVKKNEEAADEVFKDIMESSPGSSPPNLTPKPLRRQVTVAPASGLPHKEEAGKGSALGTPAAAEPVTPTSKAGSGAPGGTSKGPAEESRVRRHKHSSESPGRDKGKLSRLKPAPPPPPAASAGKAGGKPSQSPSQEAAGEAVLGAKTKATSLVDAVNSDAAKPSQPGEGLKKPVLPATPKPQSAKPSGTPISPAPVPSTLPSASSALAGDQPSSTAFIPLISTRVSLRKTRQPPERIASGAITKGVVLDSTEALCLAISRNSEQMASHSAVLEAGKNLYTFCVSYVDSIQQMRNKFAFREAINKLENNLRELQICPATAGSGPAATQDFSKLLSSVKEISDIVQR
smiles,measurement,setting,value
Cc1cn(-c2cc(NC(=O)c3ccc4c(c3)CN(c3cncnc3)C[C@H]4C)cc(C(F)(F)F)c2)cn1,pIC50,[1],< 5.00
CN1CCN(Cc2cc(NC(=O)c3ccc4c(c3)CN(c3ccccc3)CC4)cc(C(F)(F)F)c2)CC1,pIC50,[2],< 5.52
same,pIC50,[1],< 5.00
Cc1cn(-c2cc(NC(=O)c3ccc4c(c3)CN(c3cncnc3)C[C@@H]4C)cc(C(F)(F)F)c2)cn1,Cmax,[3],342 ng/mL
same,Tmax,[4],0.5 h
same,AUC(0-inf),[5],788 ng·h/mL
same,Cmax,[6],2250 ng/mL
same,Activity,[7],Dose-dependent effect
same,AUC(0-inf),[8],2550 ng·h/mL
same,Tmax,[9],1 h
same,bioavailability,[10],41.6%
same,AUC(0-inf),[11],236 ng·h/mL
same,pIC50,[1],< 5.00
same,AUC(0-inf),[12],1210 ng·h/mL
same,Activity,[13],Dose-dependent effect
same,Cmax,[14],2190 ng/mL
same,Activity,[15],Active
same,half-life,[16],1.5 h
same,bioavailability,[17],66.8%
same,pKd,[18],6.28
same,Activity,[19],Active
same,Cmax,[20],473 ng/mL
same,pKd,[21],6.26
CC(C)[C@@H]1CN(c2cncnc2)Cc2cc(C(=O)Nc3cc(CN4CCN(C)CC4)cc(C(F)(F)F)c3)ccc21,pIC50,[2],< 5.52
same,pIC50,[1],< 5.00
CC(C)[C@H]1CN(c2cncnc2)Cc2cc(C(=O)Nc3cc(CN4CCN(C)CC4)cc(C(F)(F)F)c3)ccc21,pIC50,[2],< 6.00
same,pIC50,[1],< 5.00
